Laboratory results: patent publication US12030877B2, “Prostaglandin E synthase inhibitors and methods for utilizing the same” (University of Kentucky Research Foundation, priority 2016, dated 2024)
Read-outs that look alike come from different tables or passages of the source.

Assays:
[1] = target: T1, mPGES-1 (Homo sapiens, UniProt O14684); experiment: mPGES-1 enzyme activity assay (PGE2 enzyme immunoassay), human enzyme; assay type: biochemical; set-up: made in house; host or cells: FreeStyle 293-F cells, crude microsomal preparation; details: for IC50: recombinant microsomal enzyme, means ± SD, triplicate; for inhibition at 10 µM: compound at a concentration of 10 μM, read-out: % inhibition of the compound against mPGES-1, Human enzyme
T1 sequence (O14684 1-152): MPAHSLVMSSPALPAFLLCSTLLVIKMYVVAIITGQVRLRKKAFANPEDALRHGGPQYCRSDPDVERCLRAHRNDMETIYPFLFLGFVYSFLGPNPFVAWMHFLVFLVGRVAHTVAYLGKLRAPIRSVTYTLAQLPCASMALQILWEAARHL
Description: (§1) Studies were conducted to characterize the inhibitory activity against recombinant mPGES-1 of the compounds synthesized in accordance with Examples 1-4, and disclosed herein.
(§2) Briefly, FreeStyle 293-F cells were cultured following manufacturer's manual in FreeStyle 293 expression medium on orbit rotate shaker in 8% CO2 incubator at 37° C. Cells were transfected with 1.5 μg/mL of mPGES-1/pcDNA3 construct using FreeStyle Max reagent at a cell density of 1×10^6 for 2 days. Transfected cells were collected, washed, and sonicated in TSES buffer (15 mM Tris-HCl, pH 8.0 plus 0.25 M sucrose, 0.1 mM EDTA and 1 mM DTT) on ice. The broken cells were first centrifuged at 12,500×g for 10 min. The supernatant was further centrifuged at 105,000×g for 1 hr at 4° C. The pellet was washed and homogenized in PBS buffer. The crude microsomal mPGES-1 preparation was aliquoted and stored at −80° C. The crude protein concentration was 8 mg/mL.
(§3) The enzyme activity assays were performed on ice in 1.5 ml microfuge tubes by using the expressed mPGES-1. The reaction mixture contained: 0.2 M Na2HPO4/NaH2PO4, pH 7.2, 10 μL; 0.1 M GSH, 2.5 μL; diluted microsomal enzyme (80 μg/mL), 1 μL; PGH2 (0.31 mM in DMF), 5 μL; 1 μL inhibitor; and H2O in a final reaction volume of 100 μL. PGH2 was stored in dry ice and used to initiate the reaction.
(§4) Compounds were incubated with the enzyme for 15 min at room temperature before the addition of cold PGH2 (1 μM final) to initiate the enzyme reaction. After 30 s, 10 μL of SnCl2 (40 mg/mL) in ethanol was added to stop the reaction. The nonenzymatic conversion of PGH2 to PGE2 was performed in the same buffer devoid of enzyme. The reaction mixture was placed on ice until PGE2 production was determined by the PGE2 enzyme immunoassay as described earlier. IC50 values of the inhibitors were calculated by using the GraphPad Prism 4.0 program. The results are set forth in the tables provided in Examples 7-10.

[2] = target: T2, mPGES-1 Mouse enzyme (Mus musculus, UniProt Q9JM51); experiment: mPGES-1 enzyme activity assay (PGE2 enzyme immunoassay), mouse enzyme; assay type: biochemical; details: compound at a concentration of 10 μM; read-out: % inhibition of the compound against mPGES-1, Mouse enzyme
T2 construct: made in house; host or cells: FreeStyle 293-F cells, crude microsomal preparation
T2 sequence (Q9JM51 1-153): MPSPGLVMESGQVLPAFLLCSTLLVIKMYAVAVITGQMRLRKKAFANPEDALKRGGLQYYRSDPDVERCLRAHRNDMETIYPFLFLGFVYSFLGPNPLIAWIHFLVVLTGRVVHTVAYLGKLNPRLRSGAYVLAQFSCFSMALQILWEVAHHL
Description: as §1, §2, §3, §4

[3] = read-out: IC50 against mPGES-1, Human enzyme
[4] = IC50 against mPGES-1, Human enzyme

SMILES	IC50 [1, 3] [nM]	other results
CCCCCCCCCCCCCCCCCCOc1c(Br)cc(/C=C(\C#N)C(=O)OCC)cc1OC [Compound V-19]	2270 ± 350	
CCCCCCOc1ccc(-c2nn(-c3ccc(Cl)cc3)cc2/C=C(/C#N)C(=O)O)cc1 [VII-15]	83 ± 30	inhibition at 10 µM [2]: 48%
O=C1NC(=O)C(=Cc2ccc(OCCCCC3CCCCC3)c([N+](=O)[O-])c2)C(=O)N1 [Compound I-23]		IC50 [1, 4]: 53 ± 14 nM
CCCCCCCCOc1ccc(/C=C(\C#N)C(=O)OCC)cc1[N+](=O)[O-] [Compound V-03]	4750 ± 489	
CCCCCCCCOc1ccc(-c2nn(-c3ccc(Cl)cc3)cc2C=C(C#N)C#N)cc1 [VII-26]		inhibition at 10 µM [1]: 52%
CCCCCCCOc1c(Br)cc(/C=C(\C#N)C(N)=O)cc1OC [Compound V-16]	1300 ± 232	
COc1cc(/C=C(\C#N)C(N)=O)ccc1OCC1CCCCC1 [Compound V-40]	1460 ± 119	
CCCCOc1ccc(-c2nn(-c3ccc(Cl)cc3)cc2C=C(C#N)C#N)cc1 [VII-23]		inhibition at 10 µM [1]: 77%
O=C1NC(=O)C(=Cc2ccc(OCCCCC3CCCCC3)c(Br)c2)C(=O)N1 [Compound I-03]		IC50 [1, 4]: 45 ± 8 nM
CCCCCCOc1ccc(-c2nn(-c3ccc(Cl)cc3)cc2/C=C2\SC(=O)NC2=O)cc1 [VII-06]	1390 ± 303	
CCOc1ccc(-c2nn(-c3ccc(Cl)cc3)cc2/C=C2\SC(=O)NC2=O)cc1 [VII-05]	1590 ± 557	
CCCCCCOc1c(Br)cc(/C=C(\C#N)C(=O)OCC)cc1OC [Compound V-12]	998 ± 196	
CCCCCCOc1ccc(/C=C(\C#N)C(=O)OCC)cc1OC [Compound V-23]	1450 ± 192	
O=C1NC(=O)C(=Cc2ccc(OCCCC3CCCCC3)c(Cl)c2)C(=O)N1 [Compound I-24]		IC50 [1, 4]: 110 ± 21 nM
CCCCOc1ccc(/C=C(\C#N)C(=O)OCC)cc1OC [Compound V-21]	5630 ± 987	
CCCCCCOc1ccc(-c2nn(-c3ccc(Cl)cc3)cc2/C=C(/C#N)C(=O)OCC)cc1 [VII-04]		inhibition at 10 µM [1]: 37%
CCCCCOc1ccc(/C=C(\C#N)C(=O)O)cc1OC [Compound V-44]	456 ± 42	
CCCCCCCCCCOc1ccc(-c2nn(-c3ccccc3)cc2C=C2C(=O)N(C)C(=O)N(C)C2=O)cc1 [VI-23]		inhibition at 10 µM [1]: 0%
CCCCOc1ccc(-c2nn(-c3ccccc3)cc2C=C(C#N)C#N)cc1 [VII-22]		inhibition at 10 µM [1]: 54%
CCCCCCCOc1ccc(/C=C(\C#N)C(N)=O)cc1OC [Compound V-33]	2210 ± 450	
O=C1NC(=O)C(=Cc2ccc(OCCCCC3CCCCC3)c(Br)c2)C(=O)N1 [Compound I-22]		IC50 [1, 4]: 20 ± 4 nM

SMILES	IC50 [1, 3] [nM]	other results
O=C1NC(=O)C(=Cc2ccc(OCCCC3CCCCC3)c(Cl)c2)C(=O)N1 [Compound I-30]		IC50 [1, 4]: 78 ± 13 nM
CCCCCCOc1ccc(/C=C(\C#N)C(=O)OCC)cc1 [Compound V-08]	5240 ± 429	
CCCCCCCCCCOc1ccc(-c2nn(-c3ccccc3)cc2C=C(C#N)C#N)cc1 [VII-27]		inhibition at 10 µM [1]: 49%
COc1cc(C=C(C#N)C#N)ccc1OCC1CCCCC1 [Compound V-39]	1450 ± 152	
CCCCCCCCOc1ccc(-c2nn(-c3ccc(Cl)cc3)cc2C=C2C(=O)N(C)C(=O)N(C)C2=O)cc1 [VI-22]		inhibition at 10 µM [1]: 6.8%
CCCCCCCCCOc1ccc(/C=C(\C#N)C(N)=O)cc1OC [Compound V-30]	1100 ± 212	
CCCCOc1ccc(/C=C(\C#N)C(=O)O)cc1OC [Compound V-36]	541 ± 82	
CCCCOc1ccc(-c2nn(-c3ccc(Cl)cc3)cc2C=C2C(=O)N(C)C(=O)N(C)C2=O)cc1 [VI-20]		inhibition at 10 µM [1]: 29%
O=C1NC(=O)C(=Cc2ccc(OCCCC3CCCCC3)c(Br)c2)C(=O)N1 [Compound I-25]		IC50 [1, 4]: 104 ± 25 nM
CCCCCCCCCCOc1ccc(/C=C(\C#N)C(N)=O)cc1OC [Compound V-28]	4370 ± 915	
CCCCCCCCCOc1ccc(/C=C(\C#N)C(=O)O)cc1OC [Compound V-31]	356 ± 123	
O=C1NC(=O)C(=Cc2ccc(OCCCCC3CCCCC3)c([N+](=O)[O-])c2)C(=O)N1 [Compound I-08]		IC50 [1, 4]: 67 ± 20 nM
CCOc1ccc(-c2nn(-c3ccc(Cl)cc3)cc2/C=C2\SC(=S)NC2=O)cc1 [VII-08]	1040 ± 293	
CCCCCOc1ccc(/C=C(\C#N)C(=O)OCC)cc1OC [Compound V-41]	4140 ± 858	
CCCCOc1ccc(-c2nn(-c3ccccc3)cc2C=C2C(=O)N(C)C(=O)N(C)C2=O)cc1 [VI-19]		inhibition at 10 µM [1]: 30%
CCCCCCOc1ccc(/C=C(\C#N)C(=O)O)cc1OC [Compound V-25]	242 ± 30	
CCCCCCOc1ccc(/C=C(\C#N)C(=O)OCC)cc1[N+](=O)[O-] [Compound V-01]	8740 ± 1170	
CCCCCCCCOc1ccc(-c2nn(-c3ccccc3)cc2C=C(C#N)C#N)cc1 [VII-25]		inhibition at 10 µM [1]: 55%
CCOC(=O)/C(C#N)=C/c1ccc(OCC2CCCCC2)c(OC)c1 [Compound V-38]	10800 ± 1040	
CCCCCCCOc1ccc(/C=C(\C#N)C(=O)O)cc1OC [Compound V-34]	531 ± 116	
CCCCCCCCCOc1ccc(/C=C(\C#N)C(=O)OCC)cc1OC [Compound V-29]	2880 ± 687	

SMILES	IC50 [1, 3] [nM]	other results
CCCCCOc1ccc(C=C(C#N)C#N)cc1OC [Compound V-42]	439 ± 104	
CCCCCCCOc1ccc(/C=C(\C#N)C(=O)OCC)cc1[N+](=O)[O-] [Compound V-02]	4820 ± 511	
CCCCCCCOc1ccc(/C=C(\C#N)C(=O)OCC)cc1 [Compound V-09]	3520 ± 471	
CCCCCCCOc1c(Br)cc(/C=C(\C#N)C(=O)OCC)cc1OC [Compound V-14]	1010 ± 262	
CCCCCCCCOc1ccc(-c2nn(-c3ccccc3)cc2C=C2C(=O)N(C)C(=O)N(C)C2=O)cc1 [VI-21]		inhibition at 10 µM [1]: 16%
CCCCCOc1ccc(/C=C/[N+](=O)[O-])cc1OC [Compound V-43]	2770 ± 577	
CCCCOc1ccc(/C=C(\C#N)C(N)=O)cc1OC [Compound V-37]	5410 ± 818	
CCOC(=O)/C(C#N)=C\c1cn(-c2ccc(Cl)cc2)nc1-c1ccc(OCC)cc1 [VII-03]		inhibition at 10 µM [1]: 24%
CCCCCCCOc1ccc(/C=C(\C#N)C(=O)OCC)cc1OC [Compound V-32]	4280 ± 1400	
CCCCCCCCOc1c(Br)cc(/C=C(\C#N)C(=O)OCC)cc1OC [Compound V-17]	1870 ± 350	
O=C1NC(=O)/C(=C/c2cn(-c3ccccc3)nc2-c2ccccc2)S1 [VII-07]	4930 ± 1160	
CCCCCCCCCCOc1ccc(/C=C(\C#N)C(=O)OCC)cc1OC [Compound V-26]	905 ± 177	
CCCCCOc1ccc(/C=C(\C#N)C(=O)OCC)cc1 [Compound V-07]	6220 ± 502	
O=C1NC(=O)C(=Cc2ccc(OCCCC3CCCCC3)c(Br)c2)C(=O)N1 [Compound I-31]		IC50 [1, 4]: 112 ± 13 nM
CCCCCCCCCCOc1ccc(-c2nn(-c3ccc(Cl)cc3)cc2C=C2C(=O)N(C)C(=O)N(C)C2=O)cc1 [VI-24]		inhibition at 10 µM [1]: 0%
CCCCCCOc1ccc(C=C(C#N)C#N)cc1OC [Compound V-24]	294 ± 60	
CCCCCCCCCCOc1ccc(-c2nn(-c3ccc(Cl)cc3)cc2C=C(C#N)C#N)cc1 [VII-28]		inhibition at 10 µM [1]: 47%
CCCCCCCOc1ccc(/C=C(\C#N)C(N)=O)cc1 [Compound V-11]	376 ± 31	
CCCCCCOc1ccc(-c2nn(-c3ccc(Cl)cc3)cc2/C=C2\SC(=S)NC2=O)cc1 [VII-09]	1730 ± 666	
